Values quoted from earlier work as cited in US20230000899A1, “ALGINATE, POLYLYSINE, AND SEED PRESERVATIVE NUTRITIONAL PRODUCT AND DIGESTIVE AID” (Reflux Gourmet LLC, priority 2021, published 2023).

Tested on: laboratory mice
Conditions: certain laboratory mice; administered in high concentrations

## Oc1ccc(C=Cc2cc(O)cc(O)c2)cc1 [resveratrol]
  extension of life span: up to 50%
